# Assay results from PubChem BioAssay AID1745844 (Carcinogenic Potency Database (CPDB), 2022).
# The source made the active and inactive calls. The rule behind the calls is not given here.
# Tested on: rodent lifetime carcinogenesis bioassay, tumor incidence TD50
# Assay: chronic cancer bioassays in animals – CPDB, compiled studies (AID 1745844)
compound,measurement,setting,value
COc1ccc(C(=O)Nc2c(Cl)cncc2Cl)cc1OC1CCCC1,TD50,"rat, strain IcoIbm:OFA (Sprague-Dawley derived), females, inhaled, site: nasal cavity, olfactory epithelium, lesion: carcinoma, dosed 102 weeks, study length 102 weeks",24.6 mg/kg/day
same,TD50,"rat, strain IcoIbm:OFA (Sprague-Dawley derived), females, inhaled, site: nasal cavity, olfactory epithelium, lesion: malignant tumor, dosed 102 weeks, study length 102 weeks",1.22 mg/kg/day
same,TD50,"rat, strain IcoIbm:OFA (Sprague-Dawley derived), females, inhaled, site: nasal cavity, olfactory epithelium, lesion: neuroblastoma, in situ, dosed 102 weeks, study length 102 weeks",12.2 mg/kg/day
same,TD50,"rat, strain IcoIbm:OFA (Sprague-Dawley derived), females, inhaled, site: nasal cavity, olfactory epithelium, lesion: neuroblastoma, dosed 102 weeks, study length 102 weeks",1.68 mg/kg/day
same,TD50,"rat, strain IcoIbm:OFA (Sprague-Dawley derived), females, inhaled, site: nasal cavity, olfactory epithelium, lesion: several types, types named in the paper, dosed 102 weeks, study length 102 weeks",1.18 mg/kg/day
same,TD50,"rat, strain IcoIbm:OFA (Sprague-Dawley derived), females, inhaled, site: nasal cavity, olfactory region, Bowman's gland, lesion: adenocarcinoma, dosed 102 weeks, study length 102 weeks",24.6 mg/kg/day
same,TD50,"rat, strain IcoIbm:OFA (Sprague-Dawley derived), females, inhaled, site: nasal cavity, olfactory region, Bowman's gland, lesion: adenoma, dosed 102 weeks, study length 102 weeks",24.7 mg/kg/day
same,TD50,"rat, strain IcoIbm:OFA (Sprague-Dawley derived), males, inhaled, site: nasal cavity, olfactory epithelium, lesion: carcinoma, dosed 104 weeks, study length 104 weeks",51.5 mg/kg/day
same,TD50,"rat, strain IcoIbm:OFA (Sprague-Dawley derived), males, inhaled, site: nasal cavity, olfactory epithelium, lesion: malignant tumor, dosed 104 weeks, study length 104 weeks",2.48 mg/kg/day
same,TD50,"rat, strain IcoIbm:OFA (Sprague-Dawley derived), males, inhaled, site: nasal cavity, olfactory epithelium, lesion: neuroblastoma, in situ, dosed 104 weeks, study length 104 weeks",17 mg/kg/day
same,TD50,"rat, strain IcoIbm:OFA (Sprague-Dawley derived), males, inhaled, site: nasal cavity, olfactory epithelium, lesion: neuroblastoma, dosed 104 weeks, study length 104 weeks",3.75 mg/kg/day
same,TD50,"rat, strain IcoIbm:OFA (Sprague-Dawley derived), males, inhaled, site: nasal cavity, olfactory epithelium, lesion: several types, types named in the paper, dosed 104 weeks, study length 104 weeks",2.22 mg/kg/day
same,TD50,"rat, strain IcoIbm:OFA (Sprague-Dawley derived), males, inhaled, site: nasal cavity, olfactory region, Bowman's gland, lesion: adenocarcinoma, dosed 104 weeks, study length 104 weeks",25.6 mg/kg/day
same,TD50,"rat, strain IcoIbm:OFA (Sprague-Dawley derived), males, inhaled, site: nasal cavity, olfactory region, Bowman's gland, lesion: adenoma, dosed 104 weeks, study length 104 weeks",12.7 mg/kg/day
O=C(O)c1ccc(N=Nc2ccc(O)c(C(=O)O)c2)cc1,TD50,"mouse, strain NMRI, females, in feed, site: all sites, lesion: lymphoma, dosed 107 weeks, study length 107 weeks",1200 mg/kg/day (inactive)
same,carcinogen call,"mouse, strain NMRI, females, in feed, site: liver, lesion: hepatocellular adenoma, dosed 107 weeks, study length 107 weeks",negative (inactive)
same,carcinogen call,"mouse, strain NMRI, females, in feed, site: lung, lesion: alveolar/bronchiolar adenocarcinoma, dosed 107 weeks, study length 107 weeks",negative (inactive)
same,TD50,"mouse, strain NMRI, females, in feed, site: lung, lesion: alveolar/bronchiolar adenoma, dosed 107 weeks, study length 107 weeks",2650 mg/kg/day (inactive)
same,TD50,"mouse, strain NMRI, males, in feed, site: liver, lesion: hepatocellular adenoma, dosed 120 weeks, study length 120 weeks",35200 mg/kg/day (inactive)
same,TD50,"mouse, strain NMRI, males, in feed, site: liver, lesion: hepatocellular carcinoma, dosed 120 weeks, study length 120 weeks",19500 mg/kg/day (inactive)
same,TD50,"mouse, strain NMRI, males, in feed, site: lung, lesion: alveolar/bronchiolar adenocarcinoma, dosed 120 weeks, study length 120 weeks",14300 mg/kg/day (inactive)
same,TD50,"mouse, strain NMRI, males, in feed, site: lung, lesion: alveolar/bronchiolar adenoma, dosed 120 weeks, study length 120 weeks",13000 mg/kg/day (inactive)
same,carcinogen call,"rat, strain Sprague-Dawley, females, in feed, site: liver, lesion: hepatocellular tumor, dosed 119 weeks, study length 119 weeks",negative (inactive)
same,carcinogen call,"rat, strain Sprague-Dawley, males, in feed, site: liver, lesion: hepatocellular adenoma, dosed 118 weeks, study length 118 weeks",negative (inactive)
same,carcinogen call,"rat, strain Sprague-Dawley, males, in feed, site: liver, lesion: hepatocellular carcinoma, dosed 118 weeks, study length 118 weeks",negative (inactive)
same,TD50,"rat, strain Sprague-Dawley, males, in feed, site: thyroid gland, lesion: follicular-cell adenoma, dosed 118 weeks, study length 118 weeks",15300 mg/kg/day
CCC1C(=O)OCC1Cc1cncn1C (centres undefined),TD50,"rat, strain Sprague-Dawley, females, i.p., site: any site (literature study), lesion: malignant tumor, dosed 104 weeks, study length 104 weeks",98.4 mg/kg/day (inactive)
same,TD50,"rat, strain Sprague-Dawley, males, i.p., site: any site (literature study), lesion: malignant tumor, dosed 104 weeks, study length 104 weeks",1750 mg/kg/day (inactive)
COP(=S)(OC)Oc1ccc([N+](=O)[O-])cc1,carcinogen call,"mouse, strain B6C3F1, females, in feed, site: any site (literature study), lesion: several types, types named in the paper, dosed 102 weeks, study length 102 weeks",negative (inactive)
same,TD50,"mouse, strain B6C3F1, females, in feed, site: lung, lesion: alveolar/bronchiolar adenoma + alveolar/bronchiolar carcinoma, dosed 102 weeks, study length 102 weeks",125 mg/kg/day
same,carcinogen call,"mouse, strain B6C3F1, males, in feed, site: any site (literature study), lesion: several types, types named in the paper, dosed 102 weeks, study length 102 weeks",negative (inactive)
same,TD50,"mouse, strain B6C3F1, males, in feed, site: lung, lesion: alveolar/bronchiolar adenoma + alveolar/bronchiolar carcinoma, dosed 102 weeks, study length 102 weeks",58.1 mg/kg/day
same,carcinogen call,"rat, strain Fischer 344, females, in feed, site: any site (literature study), lesion: several types, types named in the paper, dosed 105 weeks, study length 105 weeks",negative (inactive)
same,carcinogen call,"rat, strain Fischer 344, males, in feed, site: any site (literature study), lesion: several types, types named in the paper, dosed 105 weeks, study length 105 weeks",negative (inactive)
